We go through 1 substance from US6583132B1, “Oxidant scavengers” (Duke University, priority 1993, dated 2003).

Test [1] relates to calf pulmonary artery endothelial cell cultures (CPA-47). The experiment in a line: Xanthine oxidase/xanthine-induced injury, LDH release. The test is classed as cell-based. Particulars: 50 μM, 1 hour pre-incubation; XO plus 200 μM xanthine, 24 hours. How it is done: In a second study, calf pulmonary artery endothelial cell cultures (CPA-47 (Tissue and Cell 10:535 (1978)) were grown to confluence in Ham's F-12K medium with 10% fetal bovine serum at pH 7.4 and 37° C. Cells were then trypsinized and seeded at equal densities in 24 well plates and grown to 90% confluence. Cells were washed and pre-incubated for 1 hour with 50 μM of MnTBAO in minimum essential medium (MEM) or MEM only. Various amounts of xanthine oxidase (XO) plus 200 μM xanthine (X) were added and allowed to incubate for 24 hours. Cell injury was quantitated by measuring the release of cellular lactate dehydrogenase (LDH) into the medium.
In general terms: LDH leaks from cells whose membrane has failed.

Test [2] shares this test system. The experiment in a line: Paraquat-induced injury of CPA-47 cells, LDH release. Type of test: cell-based. As to conditions: varying concentrations; Paraquat 2 mM, 24 hours. How it is done:
Calf pulmonary artery endothelial cell cultures (CPA-47) were grown to confluence in Ham's F-12K medium with 10% fetal bovine serum at pH 7.4 and 37° C. Cells were then trypsinized and seeded at equal densities in 24 well plates and grown to 90% confluence. Cells were washed and pre-incubated for 1 hour with varying concentrations of ZnTBAP in MEM or MEM only. Paraquat (2 mM) was added and allowed to incubate for 24 hours. Cell injury was quantitated by measuring the release of cellular lactate dehydrogenase (LDH) into the medium.

The nature of test [3]: Paraquat-induced lung injury, BALF analysis. The test is classed as in vivo, Mice. As to conditions: 2.5 mg/ml nebulized 30 minutes twice daily for 2 days; paraquat 45 mg/kg ip; 48 hours. The procedure: Mice were treated with either paraquat (PQ, 45 mg/kg, ip) or saline (10 ml/kg, ip) and exposed to MnTBAP (2.5 mg/ml, nebulized into a 2 L chamber at 2 L/min for 30 minutes twice daily for 2 days) or room air. Mice were killed 48 hours after start of treatment and lung injury was assessed by analysis of bronchoalveolar lavage fluid (BALF). BALF damage markers used were lactate dehydrogenase (LDH, as units/L), proteins concentration (as mg/dl), and percent of polymorphonuclear leukocytes (PMN).

Test [4] concerns descending thoracic aorta rings. The experiment in a line: NO-induced vascular relaxations of aortic rings. More on the design: species or system New Zealand white rabbits. Particulars: 100 μM; NO 75-300 nM. How it is done: Measurement of NO-induced vascular relaxations: New Zealand white rabbits weighing 3-4 kg were anesthetized with pentobarbital (30 mg/kg). The descending thoracic aorta was isolated, removed, cleaned and placed in Krebs buffer (pH 7.5). Vessels were cut into 5 mm rings and hung on stirrups connected to force transducers. Rings were suspended in 20 ml jacketed baths which were kept at 37° C. and bubbled with 95% O2 and 5% CO2. Rings were equilibrated with 2 g resting tension for 1 h before use and contracted with phenylephrine. Saturated NO solution was prepared by bubbling compressed NO gas through a NaOH trap and then into anaerobic deionized water. Aliquots of the nitric oxide solutions (final concentration: 75-300 nM) were added to the rings (in the presence or absence of 100 μM MnTBAP) and relaxant responses were recorded.

In the case of “Mn(III) tetrakis (4-benzoic acid)porphyrin [MnTBAP]”, in test [1], the “XO/X-induced LDH release” value was “decrease in XO/X-induced LDH release”. Besides, the “paraquat-induced LDH release / injury” value in test [2] was “decreases paraquat-induced LDH release in a dose-dependent manner”. For the same substance, the “protection against paraquat-induced lung injury” value in test [3] was “partial protection”. The “relaxations in vascular rings in response to authentic NO” value in test [4] is recorded as “did not inhibit”.
